Tests used:
GcoA-F169A and GcoB = target: T1, GcoA-F169A and GcoB (Amycolatopsis sp., UniProt P0DPQ7, F169A/H210Q); assay: Stoichiometric end-point analysis of reactants and products (HPLC, formaldehyde assay); assay type: biochemical; details: for Formaldehyde produced: 100 μM substrate, 210 μM O2, reaction to completion
T1 construct: GST (N, cleaved yes); made in house; host or cells: E. coli Rosetta 2 (DE3)
Protocol: FIG. 3 depicts quantitative analyses of substrate consumption and product generation indicate nearly complete coupling of NADH/O2 consumption to substrate O-demethylation for guaiacol, and progressively more uncoupling for syringol and 3MC. NADH (200 μM) and guaiacol, syringol, or 3MC (100 or 200 μM) were incubated in air with 0.2 μM GcoA-F169A and GcoB (each) (25 mM HEPES, 50 mM NaCl, pH 7.5, 25° C., 210 μM O2). Reactants and products were quantified when the UV/vis spectra ceased changing and the reaction deemed complete. The total NADH consumed is compared above to the amounts of formaldehyde and de-methylated aromatic compound produced. Pyrogallol, the O-demethylated product of 3MC, was not detected under any condition. Error bars represent ±1 standard deviation from three or more independent measurements.
Since both methoxy groups of syringol can potentially serve as substrates, we examined syringol turnover in a number of ways. Syringol (100 μM) was first incubated with NADH (200 μM) and excess dissolved O2 (210 μM), and the reaction with the GcoA-F169A mutant allowed to go to completion. As with the guaiacol reaction, all of the NADH and syringol were consumed (FIG. 3), implying that syringol undergoes two O-demethylations, producing 3MC and then pyrogallol (210 μM O2, 25 mM HEPES, 50 mM NaCl, pH 7, 25° C.).
The stoichiometric analysis was next repeated with NADH and syringol present in equal concentrations (200 μM each; 210 μM O2), conditions expected to permit at most half of the available methoxy groups to react. All of the NADH and 150±6 μM of syringol were consumed; 200±3 μM formaldehyde and 120±2 μM 3MC were generated (Table 1, FIG. 3).
Formaldehyde determination. A colorimetric assay using tryptophan can be used to quantify the amount of formaldehyde produced in F169 GcoA/B reactions with guaiacol, syringol, or 3MC. 0.2 μM each of F169 GcoA mutants and GcoB were dissolved in air-saturated buffer (25 mM HEPES, 50 mM NaCl) in a cuvette at pH 7.5, 25° C. 100 μg/mL catalase was added to each reaction to capture any H2O2 formed during the uncoupled reaction. Two hundred μM NADH was added and the background rate recorded. One hundred (guaiacol, syringol, or 3MC) or 200 (syringol) μM of substrate was then added and the reaction monitored until there was no more change, due to either substrate, NADH or O2 depletion, whichever occurred first. 200 μL of the reaction was then quenched by adding 200 μL of a 0.1% tryptophan solution in 50% ethanol and 200 μL of 90% sulfuric acid. Upon thorough mixing, 40 μL of 1% FeCl3 was added. The solution was then incubated in a heating block for 90 min at 70° C. After cooling, the absorbance was read at 575 nm and the concentration of formaldehyde was calculated by using ε575 nm=4.2 mM^−1 cm^−1, obtained with formaldehyde as a standard. A negative control included everything but the substrate and was used as a baseline.
Analyte analysis of the above end-point reactions (100 μM guaiacol, syringol, or 3MC, or 200 μM syringol) was performed on an Agilent 1100 LC system (Agilent Technologies) equipped with a G1315B diode array detector (DAD). Each sample and standard was injected at a volume of 10 μL onto a Symmetry C18 column 5 μm, 4.6×150 mm column (Waters). The column temperature was maintained at 30° C. and the buffers used to separate the analytes of interest was 0.01% TFA in water (A)/acetonitrile (B). The separation was carried out using a gradient program of: (A)=99% and (B)=1% at time t=0 min; (A)=99% and (B)=1% at time t=2 min, (A)=50% and (B)=50% at t=8 min; (A)=1% and (B)=99% at t=8.01 min; (A)=99% and (B)=1% at t=10.01 min; (A)=99% and (B)=1% at t=11 min. The flow rate was held constant at 1.5 mL min^−1, resulting in a run time of 11 minutes. DAD wavelengths of 210 and 325 nm were used for analysis of the analytes of interest. Standard curves were generated using 0-500 μM of guaiacol, syringol, 3MC, catechol, and pyrogallol. […]

GcoA = GcoA (Amycolatopsis sp., UniProt P0DPQ7, H210Q); assay: Syringol binding to wild-type GcoA (KD)
Chain of GcoA (P0DPQ7 whole entry H210Q): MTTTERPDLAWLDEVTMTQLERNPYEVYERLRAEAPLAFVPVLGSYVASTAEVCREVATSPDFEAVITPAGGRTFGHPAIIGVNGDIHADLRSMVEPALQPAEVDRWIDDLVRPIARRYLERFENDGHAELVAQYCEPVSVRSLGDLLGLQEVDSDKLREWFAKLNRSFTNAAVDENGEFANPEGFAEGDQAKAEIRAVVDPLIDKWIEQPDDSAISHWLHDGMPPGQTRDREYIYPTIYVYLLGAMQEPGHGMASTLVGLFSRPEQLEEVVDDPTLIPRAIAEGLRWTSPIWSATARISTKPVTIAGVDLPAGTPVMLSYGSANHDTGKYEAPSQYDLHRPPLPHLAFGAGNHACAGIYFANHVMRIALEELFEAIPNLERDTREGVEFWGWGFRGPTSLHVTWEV
Description: The syringol binding mode can be modulated by active site engineering. Guaiacol assumes a productive orientation in the active site of GcoA due to the action of amino acid side chains that create a tight-fitting hydrophobic pocket. The closest contact is with GcoA-F169, which forms a hydrophobic interaction with the C6 carbon on the aromatic ring of guaiacol. […] We identified that the mutation of GcoA-F169 to a smaller residue may relieve the apparent steric clash between it and the bound ligand in the active site, allowing syringol to adopt a productive conformation. To test this hypothesis, GcoA-F169 was substituted with several alternative amino acids (A, S, H, V, I, and L) with the aim of introducing productive syringol turnover while retaining reactivity with guaiacol.

[1] = 200 μM syringol, 200 μM NADH, 210 μM O2

T1 sequence (P0DPQ7 whole entry F169A/H210Q): as the sequence (P0DPQ7 whole entry H210Q) above, with F169A counted along it

| SMILES | Formaldehyde produced (GcoA-F169A and GcoB; 200 μM NADH) | Kd (GcoA) [nM] | Singly demethylated intermediate 3MC observed at end of reaction (GcoA-F169A and GcoB; 100 μM syringol, 200 μM NADH, 210 μM O2) [µM] | 3MC generated (GcoA-F169A and GcoB; [1]) [µM] | Formaldehyde generated (GcoA-F169A and GcoB; [1]) [µM] | Syringol consumed (GcoA-F169A and GcoB; [1]) [µM] | Pyrogallol detection (GcoA-F169A and GcoB; any of the conditions used) |
| --- | --- | --- | --- | --- | --- | --- | --- |
| COc1cccc(O)c1O [3MC, 3-methoxycatechol] | approximately 100 μM | – | – | – | – | – | – |
| COc1cccc(OC)c1O [syringol, 2,6-dimethoxyphenol] | 170 ± 10 µM | 2800 ± 400 | 50 ± 4 | 120 ± 2 | 200 ± 3 | 150 ± 6 | not detected |

— patent US11208642B2, “Microbial syringol utilization” (Alliance for Sustainable Energy, LLC, priority 2018, dated 2021)
